# Source: patent publication US8609836B2, “4-aryl-2-anilino-pyrimidines” (Janssen Pharmaceutica NV, priority 2008, dated 2013)
# Assays:
# [1] = biological target: PLK1 T210D (h) (Homo sapiens, UniProt P53350, T210D); test: PLK1 human kinase inhibition, SPA; type: biochemical; conditions: read-out: PLK1 pIC50 (converted)
# Experimental: (§1) The in vitro inhibition of a panel of kinases was assessed using either the scintillation proximity assay (SPA) as described by Cook, N. D. et al., Advances in Experimental Medicine and Biology (1991), 36; p. 525-528.
# (§2) In the SPA technology the activity of the kinase of interest is measured using an appropriate biotinylated substrate that is incubated with the aforementioned kinase protein in the presence of (^33P) radiolabeled ATP. (^33P) Phosphorylation of the substrate is subsequently measured through binding of the phosphorylated substrate to streptavidine coated beads that are based on the scintillant poly(vinyl toluene) (PVT-Beads). The scintillation intensity is detected by imaging on Leadseeker.
# (§3) All kinases are pre-diluted to a 10× working concentration prior to addition into the assay. The composition of the dilution buffer for each kinase is detailed below.
# In a final reaction volume of 30 μl, PLK1 T210D (h) (0.125 ng/ml) is incubated with 50 mM Hepes pH 8.0, 2 mM MnCl2, 1 mM DTT, 2 μM of peptide Biotin-Tds linker-[…], 0.1 μM ATP and 2 nM [γ-^33P-ATP] (6.0 μCi/ml). After incubation of 40 minutes at room temperature, the reaction is stopped by addition of 40 μL of stop solution containing 8.7 mM EDTA, BSA 0.17%, 0.17% Triton X-100, 25 mg/ml SPA beads (GE-healthcare). The plate is centrifuged and read for Scintillation imaging on Leadseeker.
# [2] = biological target: PLK4 (h) (Homo sapiens, UniProt O00444); test: PLK-4 human kinase inhibition, scintillation proximity assay (SPA); type: biochemical; conditions: read-out: PLK4 pIC50 (converted)
# Sequence of PLK4 (h) (O00444 whole entry): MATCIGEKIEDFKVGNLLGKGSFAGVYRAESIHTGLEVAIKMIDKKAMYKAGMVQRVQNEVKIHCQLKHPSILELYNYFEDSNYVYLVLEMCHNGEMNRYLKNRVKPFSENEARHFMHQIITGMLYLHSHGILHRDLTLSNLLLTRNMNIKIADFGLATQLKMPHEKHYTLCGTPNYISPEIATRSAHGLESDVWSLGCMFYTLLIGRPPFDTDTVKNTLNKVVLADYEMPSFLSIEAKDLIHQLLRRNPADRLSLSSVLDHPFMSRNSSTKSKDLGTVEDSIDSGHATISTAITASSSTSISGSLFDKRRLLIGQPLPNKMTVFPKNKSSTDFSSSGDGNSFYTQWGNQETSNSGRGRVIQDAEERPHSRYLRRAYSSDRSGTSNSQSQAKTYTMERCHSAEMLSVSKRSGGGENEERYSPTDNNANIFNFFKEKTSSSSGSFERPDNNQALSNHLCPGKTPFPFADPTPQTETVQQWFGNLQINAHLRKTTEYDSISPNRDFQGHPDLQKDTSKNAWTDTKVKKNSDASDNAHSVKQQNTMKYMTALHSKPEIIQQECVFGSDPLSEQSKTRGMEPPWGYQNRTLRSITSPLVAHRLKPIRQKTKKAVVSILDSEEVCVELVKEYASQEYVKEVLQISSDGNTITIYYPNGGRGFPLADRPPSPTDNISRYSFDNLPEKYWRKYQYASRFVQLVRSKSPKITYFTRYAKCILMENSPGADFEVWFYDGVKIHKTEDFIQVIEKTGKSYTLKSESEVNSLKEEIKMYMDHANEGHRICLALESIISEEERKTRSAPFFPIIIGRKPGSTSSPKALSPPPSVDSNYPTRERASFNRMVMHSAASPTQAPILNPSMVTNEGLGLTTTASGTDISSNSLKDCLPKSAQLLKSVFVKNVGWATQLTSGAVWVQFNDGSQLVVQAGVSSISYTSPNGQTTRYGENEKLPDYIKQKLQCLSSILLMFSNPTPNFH
# Experimental: as §2, §3
# (6.0 μCi/ml). After incubation of 60 minutes at room temperature, the reaction is stopped by addition of 40 μL of stop solution containing 8.7 mM EDTA, BSA 0.17%, 0.17% Triton X-100, 1.7 mg/ml SPA beads (GE-healthcare). The plate is centrifuged and read for Scintillation imaging on Leadseeker.
# [3] = system: HCT-116; test: Cellular proliferation assay (Alamar blue), HCT-116; type: cell-based; conditions: Homo sapiens, 10% FCS, 72 hours with compound, Alamar blue 4 h
# Experimental: (§4) […] functional properties of these compounds were tested in cellular proliferation assays on a panel of different cell lines in the presence of 10% FCS serum (37° C. and 5% (v/v) CO2). In a first step these cells were seeded and incubated for 24 hours in the absence of compound. In the second step the cells were incubated for 72 hours with the compounds to be tested for 72 hours. The viable cell number was finally assessed in a standard Alamar blue cell viability assay.
# (§5) The viable cell number was assessed by incubation for either 4 h (HCT-116, H1299) 6 h (U87-MG) or 24 h (A2780, MDA-MB-231) with Alamar blue (Resazurin 9 μg/ml, K-Ferrocyanide 90 μM, K-Ferricyanide 90 μM) and the converted fluorescent product was quantified on a fluorescent plate reader (544 nm/590 nm). Effect of the compounds is calculated as of on control cells.
# [4] = biological target: AuroraB (h) (Homo sapiens, UniProt Q96GD4); test: Aurora-B human kinase inhibition, SPA; type: biochemical; conditions: read-out: AuroraB pIC50 (converted)
# Sequence of AuroraB (h) (Q96GD4 whole entry): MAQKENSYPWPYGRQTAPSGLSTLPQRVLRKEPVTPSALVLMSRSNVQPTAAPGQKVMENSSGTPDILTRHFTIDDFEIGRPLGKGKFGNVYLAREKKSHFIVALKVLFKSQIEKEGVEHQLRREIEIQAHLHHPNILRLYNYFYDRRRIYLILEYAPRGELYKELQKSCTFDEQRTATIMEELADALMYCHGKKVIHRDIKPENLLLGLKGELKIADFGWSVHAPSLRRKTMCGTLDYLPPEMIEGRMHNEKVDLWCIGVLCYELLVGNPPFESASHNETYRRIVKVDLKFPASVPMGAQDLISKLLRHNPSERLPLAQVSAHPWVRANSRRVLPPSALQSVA
# Experimental: as §1, §2, §3
# In a final reaction volume of 30 μl, AuroraB (h) (0.5 μg/ml) is incubated with 60 mM Hepes pH 7.5, 3 mM MgCl2, 3 mM MnCl2, 3 μM Na3VO4, 0.05 mg/ml PEG, 2 mM DTT, 3 μM Biotin-[…]-OH, 0.5 μM ATP and 2.2 nM [γ-^33P-ATP] (6.8 μCi/ml). After incubation of 60 minutes at room temperature, the reaction is stopped by addition of 40 μL of stop solution containing 8.7 mM EDTA, BSA 0.17%, 0.17% Triton X-100, 5 mg/ml SPA beads (GE-healthcare). The plate is centrifuged and read for Scintillation imaging on Leadseeker.
# [5] = biological target: GSK3β (h) (Homo sapiens, UniProt P49841); test: GSK-3β human kinase inhibition, SPA; type: biochemical; conditions: read-out: GSK3b pIC50 (converted)
# Sequence of GSK3β (h) (P49841 whole entry): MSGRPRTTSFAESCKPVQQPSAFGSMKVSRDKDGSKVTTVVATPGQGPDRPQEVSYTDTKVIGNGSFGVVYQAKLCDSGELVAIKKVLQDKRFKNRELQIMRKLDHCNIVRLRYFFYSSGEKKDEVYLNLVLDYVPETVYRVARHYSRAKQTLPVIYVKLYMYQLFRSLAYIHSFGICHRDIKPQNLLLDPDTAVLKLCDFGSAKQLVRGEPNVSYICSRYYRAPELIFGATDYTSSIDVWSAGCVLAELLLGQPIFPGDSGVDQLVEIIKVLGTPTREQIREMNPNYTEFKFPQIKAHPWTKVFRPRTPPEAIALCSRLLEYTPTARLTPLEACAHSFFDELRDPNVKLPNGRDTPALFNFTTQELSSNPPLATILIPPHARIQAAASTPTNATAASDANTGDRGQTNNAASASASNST
# Experimental: as §1, §2, §3
# In a final reaction volume of 30 μl, GSK3β (h) (1 μg/ml) is incubated with 25 mM Tris pH 7.4, 10 mM MgCl2, 1 mM DTT, 1 μM peptide Biotin-[…]-OH, 1 μM ATP and 2 nM [γ-^33P-ATP] (6.0 μCi/ml). After incubation of 60 minutes at room temperature, the reaction is stopped by addition of 40 μL of stop solution containing 8.7 mM EDTA, BSA 0.17%, 0.17% Triton X-100, 6.25 mg/ml SPA beads (GE-healthcare). The plate is centrifuged and read for Scintillation imaging on Leadseeker.
# [6] = biological target: CDK1/CyclinB (h) (Homo sapiens, UniProt P06493); test: CDK1/CyclinB human kinase inhibition, Invitrogen's FRET assay (Z'lyte); type: biochemical; conditions: read-out: CDK1 pIC50 (converted)
# Sequence of CDK1/CyclinB (h) (P06493 whole entry): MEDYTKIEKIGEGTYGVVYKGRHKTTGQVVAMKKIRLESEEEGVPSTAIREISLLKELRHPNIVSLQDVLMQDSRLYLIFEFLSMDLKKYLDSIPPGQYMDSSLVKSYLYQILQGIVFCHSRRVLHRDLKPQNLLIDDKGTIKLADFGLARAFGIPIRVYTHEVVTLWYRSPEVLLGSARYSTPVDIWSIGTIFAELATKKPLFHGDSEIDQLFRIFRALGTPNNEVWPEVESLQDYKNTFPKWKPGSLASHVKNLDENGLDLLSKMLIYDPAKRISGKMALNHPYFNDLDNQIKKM
# Sequence of CDK1/CyclinB (h) (P14635 whole entry partner): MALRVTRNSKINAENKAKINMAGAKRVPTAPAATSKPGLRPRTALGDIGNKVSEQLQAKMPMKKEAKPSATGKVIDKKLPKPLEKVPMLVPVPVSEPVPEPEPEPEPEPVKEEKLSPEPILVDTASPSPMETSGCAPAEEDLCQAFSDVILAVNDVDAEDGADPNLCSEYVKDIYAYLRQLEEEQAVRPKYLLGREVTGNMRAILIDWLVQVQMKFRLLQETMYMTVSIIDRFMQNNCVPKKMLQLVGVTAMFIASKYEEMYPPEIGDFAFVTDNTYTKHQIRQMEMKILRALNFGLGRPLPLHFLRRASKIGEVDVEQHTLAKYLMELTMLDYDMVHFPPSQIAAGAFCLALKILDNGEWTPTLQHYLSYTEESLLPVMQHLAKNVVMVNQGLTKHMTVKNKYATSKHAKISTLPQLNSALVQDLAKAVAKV
# Experimental: as §1, §3
# In a final reaction volume of 10 μl, CDK1/CyclinB (h) (0.2 μg/ml) is incubated with 50 mM Hepes pH 7.5, 10 mM MgCl2, 1 mM EGTA, 0.01% Brij-35, 2 μM Z'lyte Ser/Thr peptide 12 and 10 μM ATP (Invitrogen's FRET assay). After incubation of 60 minutes at room temperature, the reaction is stopped by addition of 5 μL development reagent containing protease mix. After 60 minutes room temperature the development reaction is stopped by adding 5 μl stop solution. The plate is then read in fluorescence plate reader with excitation: 390 nm and dual emission: 460 and 538 nm. Emission ratio is determined to the formula=Emission signal intensity at 460 nm/Emission signal intensity at 538 nm.
# [7] = biological target: PLK3 (h) (Homo sapiens, UniProt Q9H4B4); test: PLK3 human kinase inhibition, SPA; type: biochemical; conditions: read-out: PLK3 pIC50 (converted)
# Sequence of PLK3 (h) (Q9H4B4 whole entry): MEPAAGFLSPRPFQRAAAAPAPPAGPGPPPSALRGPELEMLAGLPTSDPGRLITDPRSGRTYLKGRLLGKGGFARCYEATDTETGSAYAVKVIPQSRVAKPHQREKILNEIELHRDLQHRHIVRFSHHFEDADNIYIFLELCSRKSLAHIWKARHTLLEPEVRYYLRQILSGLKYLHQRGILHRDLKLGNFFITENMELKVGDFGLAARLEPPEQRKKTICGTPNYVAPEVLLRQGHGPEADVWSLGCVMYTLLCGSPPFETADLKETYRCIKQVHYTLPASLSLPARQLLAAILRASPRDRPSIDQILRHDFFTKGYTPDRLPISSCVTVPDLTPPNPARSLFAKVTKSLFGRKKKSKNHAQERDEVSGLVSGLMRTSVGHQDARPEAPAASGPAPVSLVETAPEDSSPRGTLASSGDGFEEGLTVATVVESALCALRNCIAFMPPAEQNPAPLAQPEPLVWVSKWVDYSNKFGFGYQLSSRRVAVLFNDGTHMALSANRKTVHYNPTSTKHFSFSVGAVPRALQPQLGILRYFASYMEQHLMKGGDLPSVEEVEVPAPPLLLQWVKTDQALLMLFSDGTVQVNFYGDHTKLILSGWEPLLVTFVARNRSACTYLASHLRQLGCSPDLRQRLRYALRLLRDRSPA
# Experimental: as §1, §2, §3
# (§6) In a final reaction volume of 30 μl, PLK3 (h) (30 μg/ml) is incubated with 50 mM Hepes pH 8.0, 2 mM MnCl2, 1 mM DTT, 2 μM of peptide Biotin-Tds linker-[…], 0.1 μM ATP and 2 nM [γ-^33P-ATP] (6.0 μCi/ml). After incubation of 20 minutes at room temperature, the reaction is stopped by addition of 40 μL of stop solution containing 8.7 mM EDTA, BSA 0.17%, 0.17% Triton X-100, 25 mg/ml SPA beads (GE-healthcare). The plate is centrifuged and read for Scintillation imaging on Leadseeker.
# [8] = biological target: PLK2 (h) (Homo sapiens, UniProt Q9NYY3); test: PLK2 human kinase inhibition, SPA; type: biochemical; conditions: read-out: PLK2 pIC50 (converted)
# Sequence of PLK2 (h) (Q9NYY3 whole entry): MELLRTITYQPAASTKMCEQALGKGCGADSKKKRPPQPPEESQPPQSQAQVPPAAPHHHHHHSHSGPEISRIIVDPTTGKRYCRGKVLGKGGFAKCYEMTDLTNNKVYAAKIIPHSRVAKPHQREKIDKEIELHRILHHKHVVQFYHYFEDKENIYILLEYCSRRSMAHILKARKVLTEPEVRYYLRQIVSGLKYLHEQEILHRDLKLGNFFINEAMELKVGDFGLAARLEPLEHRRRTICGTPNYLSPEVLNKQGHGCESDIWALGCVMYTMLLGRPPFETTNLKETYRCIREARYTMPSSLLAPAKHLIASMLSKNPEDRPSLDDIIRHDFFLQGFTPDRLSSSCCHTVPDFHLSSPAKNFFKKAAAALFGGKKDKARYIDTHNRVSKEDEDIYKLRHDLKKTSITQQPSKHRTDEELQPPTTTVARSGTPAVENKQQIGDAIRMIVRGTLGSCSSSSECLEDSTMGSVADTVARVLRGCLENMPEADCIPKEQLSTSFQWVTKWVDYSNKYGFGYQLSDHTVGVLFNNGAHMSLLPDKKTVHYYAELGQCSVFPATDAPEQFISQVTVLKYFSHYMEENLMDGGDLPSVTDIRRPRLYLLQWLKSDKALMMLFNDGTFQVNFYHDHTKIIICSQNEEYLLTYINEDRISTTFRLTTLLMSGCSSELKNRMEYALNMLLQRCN
# Experimental: as §1, §2, §3
# as §6, with “PLK2” for “PLK3”
# [9] = system: U87-MG; test: Cellular proliferation assay (Alamar blue), U87-MG; type: cell-based; conditions: Homo sapiens, U-87 MG; 10% FCS; 72 hours with compound; Alamar blue 6 h; read-out: U87-MG (cellular proliferation assay, Table 4) (converted)
# Experimental: as §4, §5
# [10] = biological target: CDK4/CyclinD1 (h) (Homo sapiens, UniProt P11802); test: CDK4/CyclinD1 human kinase inhibition, SPA with GST-pRb substrate; type: biochemical; conditions: read-out: CDK4 pIC50 (converted)
# Sequence of CDK4/CyclinD1 (h) (P11802 whole entry): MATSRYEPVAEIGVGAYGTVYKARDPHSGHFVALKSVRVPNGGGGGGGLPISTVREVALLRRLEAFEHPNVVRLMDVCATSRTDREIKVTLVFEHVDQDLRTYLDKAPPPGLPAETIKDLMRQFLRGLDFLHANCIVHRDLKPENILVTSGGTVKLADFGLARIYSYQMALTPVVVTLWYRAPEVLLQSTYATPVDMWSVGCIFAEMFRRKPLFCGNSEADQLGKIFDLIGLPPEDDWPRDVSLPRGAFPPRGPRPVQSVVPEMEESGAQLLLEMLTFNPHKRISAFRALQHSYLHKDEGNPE
# Sequence of CDK4/CyclinD1 (h) (P24385 whole entry partner): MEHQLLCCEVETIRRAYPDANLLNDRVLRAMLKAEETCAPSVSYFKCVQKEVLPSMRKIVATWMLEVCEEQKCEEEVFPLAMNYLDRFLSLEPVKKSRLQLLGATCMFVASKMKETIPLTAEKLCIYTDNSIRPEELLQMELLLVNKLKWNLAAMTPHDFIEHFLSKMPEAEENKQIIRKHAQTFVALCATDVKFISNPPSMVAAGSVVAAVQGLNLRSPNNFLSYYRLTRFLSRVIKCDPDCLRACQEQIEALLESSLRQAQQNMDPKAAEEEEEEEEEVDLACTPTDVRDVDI
# Experimental: as §1, §2, §3
# In a final reaction volume of 30 μl, CDK4/CyclinD1 (h) (2.5 μg/ml) is incubated with 50 mM Hepes pH 7.5, 8 mM NaF, 20 mM MgCl2, 1 mM DTT, 40 μg/ml of substrate GST-pRb, 2 nM [γ-^33P-ATP] (6.0 μCi/ml). After incubation of 60 minutes at room temperature, the reaction is stopped by addition of 40 μL of stop solution containing 8.7 mM EDTA, 0.17% Triton X-100, 25 mg/ml Glutathion SPA Beads (GE-healthcare). The plate is centrifuged and read for Scintillation topcount analyzer.
# [11] = system: A2780; test: Cellular proliferation assay (Alamar blue), A2780; type: cell-based; conditions: Homo sapiens, 10% FCS, 72 hours with compound, Alamar blue 24 h, read-out: A2780 (cellular proliferation assay, Table 4) (converted)
# Experimental: as §4, §5
# Sequence of PLK1 T210D (h) (P53350 whole entry T210D): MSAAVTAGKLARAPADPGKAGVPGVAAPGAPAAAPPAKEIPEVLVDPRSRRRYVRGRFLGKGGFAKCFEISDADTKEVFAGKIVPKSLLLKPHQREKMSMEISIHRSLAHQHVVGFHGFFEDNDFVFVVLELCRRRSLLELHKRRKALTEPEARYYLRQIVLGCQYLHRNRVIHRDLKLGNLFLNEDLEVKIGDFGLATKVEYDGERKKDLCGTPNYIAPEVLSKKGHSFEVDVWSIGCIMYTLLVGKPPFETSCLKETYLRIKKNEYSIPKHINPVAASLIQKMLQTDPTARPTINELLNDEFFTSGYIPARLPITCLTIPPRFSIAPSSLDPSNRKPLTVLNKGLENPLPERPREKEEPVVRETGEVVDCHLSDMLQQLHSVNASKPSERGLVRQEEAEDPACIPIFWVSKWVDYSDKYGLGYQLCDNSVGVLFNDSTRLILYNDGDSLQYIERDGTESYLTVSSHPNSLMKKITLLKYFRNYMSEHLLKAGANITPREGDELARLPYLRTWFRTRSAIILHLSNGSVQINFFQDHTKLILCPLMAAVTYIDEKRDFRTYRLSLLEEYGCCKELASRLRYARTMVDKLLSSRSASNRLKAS
Compound,IC50 [1] [µM],IC50 [2] [µM],IC50 [3] [µM],IC50 [4] [µM],IC50 [5] [µM],IC50 [6] [µM],IC50 [7] [µM],IC50 [8] [µM],IC50 [9] [µM],IC50 [10] [µM],IC50 [11] [µM]
COc1ccc2cc1CN1CCC[C@H]1C(=O)NCCCc1ccc(cn1)-c1ccnc(n1)N2 [Compound 2],> 10,> 10,> 10,> 10,> 10,> 10,> 10,> 10,> 10,> 10,–
COc1ccc2cc1CN(C)CCNC(=O)CN1CCN(CC1)Cc1cc(Br)cc(c1)Nc1nccc-2n1 [Compound 50],> 10,9.33,> 10,> 10,5.13,> 10,> 10,> 10,> 10,> 10,> 10
CN1CCCNC(=O)C2CCN(CC2)Cc2cc(Br)cc(c2)Nc2nccc(n2)-c2ccc(cc2)C1 [Compound 63],> 10,1.12,> 10,> 10,1.91,> 10,> 10,> 10,5.89,> 10,2.69
COc1ccc2cc1CNCCNC(=O)C1CCN(CC1)Cc1cc(ccc1N1CCOCC1)Nc1nccc-2n1 [Compound 64],> 10,1.2,–,7.41,> 10,> 10,> 10,> 10,–,> 10,–
COc1ccc2cc1CN(C)CCNC(=O)C1CCN(CC1)Cc1cc(Br)cc(c1)Nc1nccc-2n1 [Compound 79],> 10,5.25,> 10,> 10,0.832,> 10,> 10,> 10,7.59,> 10,4.79
CN1CCCNC(=O)CN2CCN(CC2)Cc2cc(Br)cc(c2)Nc2nccc(n2)-c2ccc(cc2)C1 [Compound 137],> 10,2.09,> 10,> 10,2.95,> 10,> 10,> 10,7.94,> 10,3.89
CN1CCCNC(=O)CN2CCN(CC2)Cc2cccc(c2)Nc2nccc(n2)-c2ccc(cc2)C1 [Compound 143],> 10,3.55,> 10,> 10,> 3.02,> 10,> 10,> 10,> 10,> 10,> 10
CN1CCCNC(=O)[C@@H]2CCCN2Cc2cc(Br)cc(c2)Nc2nccc(n2)-c2ccc(cc2)C1 [Compound 159],> 10,1.48,> 10,5.75,6.31,> 10,> 10,> 10,6.92,> 10,2.69
COc1ccc2cc1CN(C)CCCNC(=O)[C@@H]1CCCN1Cc1cc(Br)cc(c1)Nc1nccc-2n1 [Compound 170],> 10,3.89,> 10,5.25,> 10,> 10,> 10,> 10,5.25,> 10,4.17
COc1ccc2cc1CN(C)CCNC(=O)[C@@H]1CCCN1Cc1cc(Br)cc(c1)Nc1nccc-2n1 [Compound 174],> 10,~6.92,> 10,8.71,4.79,> 10,> 10,> 10,> 10,> 10,1.66
O=C1NCc2cccc(c2)-c2ccnc(n2)Nc2ccc(cc2)CN[C@H]1CO [Compound 191],> 10,> 10,–,> 10,7.94,> 10,> 10,> 10,–,7.41,–
